Experimental data taken from patent US10329302B2, “Bicyclic-fused heteroaryl or aryl compounds” (Pfizer Inc., priority 2014, dated 2019).

Each compound was assayed against human IRAK4 FL (Full Length) (Homo sapiens (Human), UniProt Q9NWZ3) (assay: IRAK4 Enzymatic DELFIA Assay, Protocol A). Details: not given.
Format: biochemical

Chain of human IRAK4 FL (Full Length) (Q9NWZ3 whole entry): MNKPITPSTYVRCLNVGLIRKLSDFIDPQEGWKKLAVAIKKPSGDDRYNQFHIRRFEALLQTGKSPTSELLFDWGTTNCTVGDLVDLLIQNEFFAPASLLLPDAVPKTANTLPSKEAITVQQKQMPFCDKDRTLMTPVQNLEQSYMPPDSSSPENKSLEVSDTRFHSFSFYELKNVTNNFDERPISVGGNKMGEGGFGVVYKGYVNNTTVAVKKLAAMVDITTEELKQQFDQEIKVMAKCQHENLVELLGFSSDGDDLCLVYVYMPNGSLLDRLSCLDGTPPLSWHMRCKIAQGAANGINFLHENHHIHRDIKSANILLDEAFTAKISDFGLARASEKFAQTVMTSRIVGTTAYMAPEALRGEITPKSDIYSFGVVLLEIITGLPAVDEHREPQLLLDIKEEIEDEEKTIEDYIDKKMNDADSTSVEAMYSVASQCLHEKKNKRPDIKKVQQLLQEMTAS

**Q.** With `CC(C)Oc1cc2c(OC[C@@H]3CCC(=O)N3)ncc(CN)c2cc1C(N)=O` [Example 195, 4-(aminomethyl)-1-{[(2S)-5-oxopyrrolidin-2-yl]methoxy}-7-(propan-2-yloxy)isoquinoline-6-carboxamide] as the compound, how does the IC50 read?
**A.** 3400 nM

**Q.** How did the IC50 turn out when `CC(C)Oc1cc2c(OC[C@@H]3CCC(=O)N3)ncc(-c3cccc(=O)[nH]3)c2cc1C(N)=O` [Example 378, 4-(6-oxo-1,6-dihydropyridin-2-yl)-1-{[(2S)-5-oxopyrrolidin-2-yl]methoxy}-7-(propan-2-yloxy)isoquinoline-6-carboxamide] was run?
**A.** 59 nM

Same assay, conditions: human IRAK4 FL, 0.6 mM ATP (KM); read-out: IRAK4 DELFIA Protocol A IC50

**Q.** For `CC(C)Oc1cc2c(O[C@@H]3CCC[C@]34CCC(=O)N4)nccc2cc1C(N)=O` [Example 186, 1-{[(5S,6R)-2-oxo-1-azaspiro[4.4]non-6-yl]oxy}-7-(propan-2-yloxy)isoquinoline-6-carboxamide], which IC50 is on record?
**A.** 303 nM

**Q.** With `CC(C)Oc1cc2c(OC[C@@H]3CCC(=O)N3)ncc(C#N)c2cc1C(N)=O` [Example 190, 4-cyano-1-{[(2S)-5-oxopyrrolidin-2-yl]methoxy}-7-(propan-2-yloxy)isoquinoline-6-carboxamide] as the compound, how does the IC50 read?
**A.** 294 nM

**Q.** For `CC(C)Oc1cc2c(OC[C@@H]3C[C@H](C4(O)COC4)C(=O)N3)nccc2cc1C(N)=O` [Example 192, 1-{[(2S,4R)-4-(3-hydroxyoxetan-3-yl)-5-oxopyrrolidin-2-yl]methoxy}-7-(propan-2-yloxy)isoquinoline-6-carboxamide], which IC50 is on record?
**A.** 284 nM

**Q.** For `CC(C)Oc1cc2c(OC[C@@H]3C[C@@H](C4(O)COC4)C(=O)N3)nccc2cc1C(N)=O` [Example 193, 1-{[(2S,4S)-4-(3-hydroxyoxetan-3-yl)-5-oxopyrrolidin-2-yl]methoxy}-7-(propan-2-yloxy)isoquinoline-6-carboxamide], which IC50 is on record?
**A.** 238 nM

**Q.** How did the IC50 turn out when `NC(=O)c1cc2ccnc(OC[C@@H]3CCC(=O)N3)c2cc1OC1COC1` [Example 199, 7-(oxetan-3-yloxy)-1-{[(2S)-5-oxopyrrolidin-2-yl]methoxy}isoquinoline-6-carboxamide] was run?
**A.** 2900 nM

**Q.** How did the IC50 turn out when `CC(C)(C)Oc1cc2c(OC[C@@H]3CCC(=O)N3)nccc2cc1C(N)=O` [Example 200, 7-tert-butoxy-1-{[(2S)-5-oxopyrrolidin-2-yl]methoxy}isoquinoline-6-carboxamide] was run?
**A.** 697 nM

**Q.** Which IC50 does the source give for `NC(=O)c1cc2ccnc(OC[C@@H]3CCC(=O)N3)c2cc1OCC1CC1` [Example 204, 7-(cyclopropylmethoxy)-1-{[(2S)-5-oxopyrrolidin-2-yl]methoxy}isoquinoline-6-carboxamide] here?
**A.** 2060 nM

**Q.** For `COc1cc2c(OC[C@H]3NC(=O)[C@@](F)(CO)[C@H]3C)nccc2cc1C(N)=O` [Example 210, 1-{[(2S,3S,4S)-4-fluoro-4-(hydroxymethyl)-3-methyl-5-oxopyrrolidin-2-yl]methoxy}-7-methoxyisoquinoline-6-carboxamide], which IC50 is on record?
**A.** 3470 nM

**Q.** How did the IC50 turn out when `CC(C)Oc1cc2c(OC[C@H]3NC(=O)C[C@@H]3CO)nccc2cc1C(N)=O` [Example 212, 1-{[(2S,3S)-3-(hydroxymethyl)-5-oxopyrrolidin-2-yl]methoxy}-7-(propan-2-yloxy)isoquinoline-6-carboxamide] was run?
**A.** 150 nM

**Q.** For `CC(C)Oc1cc2c(OC[C@H]3NC(=O)[C@@H]4CN(C)C[C@H]34)nccc2cc1C(N)=O` [Example 213, 1-{[(1S,3aS,6aR)-5-methyl-3-oxooctahydropyrrolo[3,4-c]pyrrol-1-yl]methoxy}-7-(propan-2-yloxy)isoquinoline-6-carboxamide], which IC50 is on record?
**A.** 1420 nM

**Q.** How did the IC50 turn out when `COc1cc2c(OC[C@H]3NC(=O)C[C@@H]3CO)nccc2cc1C(N)=O` [Example 214, 1-{[(2S,3S)-3-(hydroxymethyl)-5-oxopyrrolidin-2-yl]methoxy}-7-methoxyisoquinoline-6-carboxamide] was run?
**A.** 215 nM

**Q.** Which IC50 does the source give for `COc1cc2c(OC[C@H]3NC(=O)CC3(C)C)nccc2cc1C(N)=O` [Example 221, 1-{[(2S)-3,3-dimethyl-5-oxopyrrolidin-2-yl]methoxy}-7-methoxyisoquinoline-6-carboxamide] here?
**A.** 54 nM

**Q.** With `COc1cc2c(OC[C@@H]3C[C@H](CC#N)C(=O)N3)nccc2cc1C(N)=O` [Example 224, 1-{[(2S,4R)-4-(cyanomethyl)-5-oxopyrrolidin-2-yl]methoxy}-7-methoxyisoquinoline-6-carboxamide] as the compound, how does the IC50 read?
**A.** 1170 nM

**Q.** `CC(C)Oc1cc2c(OC[C@H]3NC(=O)[C@@H]4CNC[C@H]34)nccc2cc1C(N)=O` [Example 226, 1-{[(1S,3aS,6aR)-3-oxooctahydropyrrolo[3,4-c]pyrrol-1-yl]methoxy}-7-(propan-2-yloxy)isoquinoline-6-carboxamide] was tested. Which IC50 did it give?
**A.** 222 nM

**Q.** With `COc1cc2c(OC[C@H]3CN(C)C(=O)O3)nccc2cc1C(N)=O` [Example 239, 7-methoxy-1-{[(5R)-3-methyl-2-oxo-1,3-oxazolidin-5-yl]methoxy}isoquinoline-6-carboxamide] as the compound, how does the IC50 read?
**A.** 1180 nM

**Q.** Which IC50 does the source give for `COc1cc2c(OC[C@H]3NC(=O)[C@@H](C)[C@@H]3CF)nccc2cc1C(N)=O` [Example 254, 1-{[(2S,3S,4S)-3-(fluoromethyl)-4-methyl-5-oxopyrrolidin-2-yl]methoxy}-7-methoxyisoquinoline-6-carboxamide] here?
**A.** 2950 nM

**Q.** `COc1cc2c(OC[C@@H]3C[C@](F)(CF)C(=O)N3)nccc2cc1C(N)=O` [Example 261, 1-{[(2S,4R)-4-fluoro-4-(fluoromethyl)-5-oxopyrrolidin-2-yl]methoxy}-7-methoxyisoquinoline-6-carboxamide] was tested. Which IC50 did it give?
**A.** 671 nM

**Q.** With `COc1cc2c(OCC3(C)COCC(=O)N3)nccc2cc1C(N)=O` (centres unmarked) [Example 265, 7-methoxy-1-[(3-methyl-5-oxomorpholin-3-yl)methoxy]isoquinoline-6-carboxamide] as the compound, how does the IC50 read?
**A.** 1540 nM

**Q.** With `COc1cc2c(OC[C@@H]3C[C@H](CC(F)(F)F)C(=O)N3)nccc2cc1C(N)=O` [Example 270, 7-methoxy-1-{[(2S,4R)-5-oxo-4-(2,2,2-trifluoroethyl)pyrrolidin-2-yl]methoxy}isoquinoline-6-carboxamide] as the compound, how does the IC50 read?
**A.** 290 nM

**Q.** For `CCOc1cc2c(OC[C@H]3NC(=O)[C@@H]4C[C@H]34)ccnc2cc1C(N)=O` [Example 280, 6-ethoxy-4-{[(1S,2S,5R)-4-oxo-3-azabicyclo[3.1.0]hex-2-yl]methoxy}quinoline-7-carboxamide], which IC50 is on record?
**A.** 3790 nM

**Q.** For `COc1cc2c(OC[C@H]3NC(=O)[C@@H]4[C@@H](C)[C@@H]43)c(Cl)cnc2cc1C(N)=O` [Example 321, 3-chloro-6-methoxy-4-{[(1S,2S,5R)-6-methyl-4-oxo-3-azabicyclo[3.1.0]hex-2-yl]methoxy}quinoline-7-carboxamide], which IC50 is on record?
**A.** 4190 nM

**Q.** For `COc1cc2c(OC[C@H]3NC(=O)[C@@H]4[C@H](CO)[C@@H]43)nccc2cc1C(N)=O` [Example 328, 1-{[(1S,2S,5S)-6-(hydroxymethyl)-4-oxo-3-azabicyclo[3.1.0]hex-2-yl]methoxy}-7-methoxyisoquinoline-6-carboxamide], which IC50 is on record?
**A.** 93 nM

**Q.** For `COc1cc2c(O[C@@H](C)[C@@H]3CCC(=O)N3)nccc2cc1C(N)=O` [Example 354, 7-methoxy-1-{(1S)-1-[(2S)-5-oxopyrrolidin-2-yl]ethoxy}isoquinoline-6-carboxamide], which IC50 is on record?
**A.** 2890 nM

**Q.** For `COc1cc2c(OC[C@H]3NC(=O)[C@H](F)[C@H]3CF)nccc2cc1C(N)=O` [Example 375, 1-{[(2S,3R,4R)-4-fluoro-3-(fluoromethyl)-5-oxopyrrolidin-2-yl]methoxy}-7-methoxyisoquinoline-6-carboxamide], which IC50 is on record?
**A.** 0.3 nM

**Q.** How did the IC50 turn out when `Cc1ccnc(-c2cnc(OC[C@@H]3CCC(=O)N3)c3cc(OC(C)C)c(C(N)=O)cc23)n1` [Example 376, 4-(4-methylpyrimidin-2-yl)-1-{[(2S)-5-oxopyrrolidin-2-yl]methoxy}-7-(propan-2-yloxy)isoquinoline-6-carboxamide] was run?
**A.** 740 nM

**Q.** For `CC(C)Oc1cc2c(OC[C@@H]3CCC(=O)N3)ncc(-c3ncc(Cl)cn3)c2cc1C(N)=O` [Example 377, 4-(5-chloropyrimidin-2-yl)-1-{[(2S)-5-oxopyrrolidin-2-yl]methoxy}-7-(propan-2-yloxy)isoquinoline-6-carboxamide], which IC50 is on record?
**A.** 72 nM

**Q.** With `Cc1nccc(-c2cnc(OC[C@@H]3CCC(=O)N3)c3cc(OC(C)C)c(C(N)=O)cc23)n1` [Example 379, 4-(2-methylpyrimidin-4-yl)-1-{[(2S)-5-oxopyrrolidin-2-yl]methoxy}-7-(propan-2-yloxy)isoquinoline-6-carboxamide] as the compound, how does the IC50 read?
**A.** 503 nM

These compounds were tested on R848-induced TNFα production by human peripheral blood mononuclear cells (PBMCs) (assay: R848 Induced TNFα in Human PBMC Assay). Details: Homo sapiens, PBMC, 3 h, read-out: R848-induced TNFa PBMC IC50 (nM).
Format: cell-based
Excerpt: R848 Induced TNFα in Human PBMC Assay.
This protocol is for R848-induced TNFα production by human peripheral blood mononuclear cells (PBMCs). […] The assay is used to assess cell-based potency of small molecule inhibitors of IRAK4 in the absence of serum.
The PBMCs in the interphase layer were collected and washed with PBS via centrifugation multiple times until the supernatant is clear. The purified PBMCs were re-suspended in RPMI (Roswell Park Memorial Institute) media (Sigma-Aldrich).
For the assay, a compound dilution plate containing a top concentration of 4 mM compound in DMSO was serially diluted 4-fold for 11 times. 250 nL of the compound dilution plate was spotted into a 384-well, flat bottom with lid, TC-treated, black with clear bottom, sterile, polystyrene plate (Corning Life Sciences).
10 μL of anti-TNFα antibody labeled with MSD SULFO-TAG at 50 μg/mL was added to each well and allowed to incubate overnight at 4° C.

**Q.** How did the IC50 turn out when `CCC1C[C@@H](COc2nccc3cc(C(N)=O)c(OC(C)C)cc23)NC1=O` (single isomer, unassigned) [Example 113] was run?
**A.** 53 nM

**Q.** For `COc1cc2c(OC[C@H]3NC(=O)[C@H]4C3[C@H]4C)nccc2cc1C(N)=O` (stereo in doubt) [Example 285, 7-methoxy-1-(((1R,2S,5R,6R)-6-methyl-4-oxo-3-azabicyclo[3.1.0]hexan-2-yl)methoxy)isoquinoline-6-carboxamide], which IC50 is on record?
**A.** 1060 nM

**Q.** Which IC50 does the source give for `CC[C@@H]1C2[C@@H](COc3nccc4cc(C(N)=O)c(OC)cc34)NC(=O)[C@@H]21` (stereo in doubt) [Example 301, 1-(((1R,2S,5R,6R)-6-ethyl-4-oxo-3-azabicyclo[3.1.0]hexan-2-yl)methoxy)-7-methoxyisoquinoline-6-carboxamide] here?
**A.** 4050 nM

**Q.** `COc1cc2c(OC[C@H]3NC(=O)[C@@H]4C(CCF)C43)nccc2cc1C(N)=O` (stereo in doubt) [Example 306, 1-(((1R,2S,5R,6R)-6-(2-fluoroethyl)-4-oxo-3-azabicyclo[3.1.0]hexan-2-yl)methoxy)-7-methoxyisoquinoline-6-carboxamide] was tested. Which IC50 did it give?
**A.** 4060 nM

Same assay, conditions: human PBMC, absence of serum, 3 hours; read-out: R848-induced TNFa PBMC IC50

**Q.** For `CC[C@]1(O)[C@H](F)C(=O)N[C@@H]1COc1nccc2cc(C(N)=O)c(OC)cc12` [Example 196, 1-{[(2R,3R,4S)-3-ethyl-4-fluoro-3-hydroxy-5-oxopyrrolidin-2-yl]methoxy}-7-methoxyisoquinoline-6-carboxamide], which IC50 is on record?
**A.** 11 nM

**Q.** With `CC[C@@H]1[C@H](F)C(=O)NC1(O)COc1nccc2cc(C(N)=O)c(OC)cc12` (stereo partly drawn) [Example 197, 1-{[(3S,4S)-3-ethyl-4-fluoro-2-hydroxy-5-oxopyrrolidin-2-yl]methoxy}-7-methoxyisoquinoline-6-carboxamide] as the compound, how does the IC50 read?
**A.** 71 nM
